How the values were obtained:
[1] = Amino carbonyl reaction with polypeptone; format: physicochemical; details: 10% (w/v) with 5% (w/v) polypeptone, 100° C., minus control
Protocol: Four milliliter aliquots of the resulting solution were placed in glass test tubes, sealed, and heated at 100° C. for 30 to 90 min. After allowing to stand for cooling at ambient temperature, each of the resulting solution was measured for coloration degree to examine their amino carbonyl reactivity. In parallel, as a control, a solution with only polypeptone was provided and treated similarly as above. The coloration degree was evaluated based on the level of the absorbance, which had been measured in a cell with 1-cm light pass at a wavelength of 480 nm, minused that of the control.

[2] = system: Lactobacillus acidophilus JCM 1132; experiment: Assimilation test; format: cell-based; details: 0.5% saccharide in PYF medium, 37° C., four days, anaerobic
[3] = Thermostability; format: physicochemical; details: 10% (w/v) aqueous solution, 120° C.; for Purity (%) after heating: HPLC
Protocol: After the heating, the aqueous solutions were cooled under atmospheric conditions and measured for coloration degree and determined for purity on HPLC. The coloration degree of each solution was evaluated based on the absorbance in a cell with a 1-cm light pass at a wavelength of 480 nm.

[4] = system: Small intestinal mucosal enzyme
[5] = system: Clostridium perfringens JCM 3816; format: cell-based; details: 0.5% saccharide in PYF medium, 37° C., four days, anaerobic
[6] = pH stability; format: physicochemical; details: 4% (w/v), 100° C., 24 hours; for Purity (%) after heating: HPLC
Protocol: Eight milliliters of each solution was placed in a glass test tube, followed by sealing and then heating the test tube at 100° C. for 24 hours. After the heating, each solution was cooled and measured for coloration degree and determined for purity on HPLC. The coloration degree was evaluated based on the absorbance in a cell with a 1-cm light pass at a wavelength of 480 nm.

[7] = target: T1, amylopsin (Homo sapiens, UniProt P04746)
T1 sequence (P04746 16-511): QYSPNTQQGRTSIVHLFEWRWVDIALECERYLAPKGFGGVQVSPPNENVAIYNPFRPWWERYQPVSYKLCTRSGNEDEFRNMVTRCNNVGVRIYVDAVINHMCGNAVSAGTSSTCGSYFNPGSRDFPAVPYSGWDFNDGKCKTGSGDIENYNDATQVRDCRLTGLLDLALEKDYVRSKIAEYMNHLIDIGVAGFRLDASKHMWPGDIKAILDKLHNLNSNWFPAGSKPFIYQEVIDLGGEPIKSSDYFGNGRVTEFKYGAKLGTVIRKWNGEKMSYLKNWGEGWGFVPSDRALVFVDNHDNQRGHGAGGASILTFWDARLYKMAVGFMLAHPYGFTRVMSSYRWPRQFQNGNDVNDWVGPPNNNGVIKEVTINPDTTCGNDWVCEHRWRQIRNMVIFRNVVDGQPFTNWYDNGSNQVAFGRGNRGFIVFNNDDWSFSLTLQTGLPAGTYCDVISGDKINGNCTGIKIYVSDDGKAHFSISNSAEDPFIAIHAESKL

[8] = system: Bacteroides vulgatus JCM 5826; experiment: Assimilation test; format: cell-based; details: 0.5% saccharide in PYF medium, 37° C., four days, anaerobic
[9] = system: mice; experiment: Acute toxicity test, oral; format: in vivo; details: oral administration to mice
Text: Based on this, the LD50 of cyclotetrasaccharide was at least 50 g/kg mouse body weight, though the value was […].

[10] = target: T2, salivary amylase (Homo sapiens, UniProt P0DUB6)
T2 sequence (P0DUB6 16-511): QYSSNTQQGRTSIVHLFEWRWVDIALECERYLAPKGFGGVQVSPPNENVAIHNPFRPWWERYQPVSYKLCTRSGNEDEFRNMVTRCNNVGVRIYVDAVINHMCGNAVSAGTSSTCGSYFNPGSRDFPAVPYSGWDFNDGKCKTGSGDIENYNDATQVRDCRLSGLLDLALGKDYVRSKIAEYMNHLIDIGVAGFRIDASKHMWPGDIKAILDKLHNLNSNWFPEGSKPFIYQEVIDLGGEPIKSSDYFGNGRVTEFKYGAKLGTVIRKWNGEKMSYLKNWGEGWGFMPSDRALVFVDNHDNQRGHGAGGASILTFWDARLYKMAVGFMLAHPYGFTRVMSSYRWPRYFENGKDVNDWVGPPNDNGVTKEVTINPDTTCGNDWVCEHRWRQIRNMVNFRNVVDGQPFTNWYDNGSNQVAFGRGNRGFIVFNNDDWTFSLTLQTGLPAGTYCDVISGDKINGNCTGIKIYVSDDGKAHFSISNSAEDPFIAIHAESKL

[11] = Inclusion action; format: physicochemical
Protocol: To 100 g aliquots of the aqueous solution was added 2 g of methanol, 3 g of ethanol, or 4.6 g acetic acid to be included by the cyclotetrasaccharide. Thereafter, each of the resulting solutions was filtered to remove non-inclusion products, and the filtrates were dried in vacuo. As a control, similar inclusion products were prepared by using “ISOELITE™ P”, a branched cyclodextrin commercialized by Maruha K.K., Tokyo, Japan, which were known to have inclusion ability.
To measure the amount of the inclusion products in the resulting lyophilized powders, one gram of each of the powders was dissolved in five milliliters of water and extracted after admixing with five milliliters of diethylether. The extraction was repeated, and the resulting extracts were quantified on gas chromatography.

[12] = system: Escherichia coli IFO 3301; experiment: Assimilation test; format: cell-based; details: 0.5% saccharide in PYF medium, 37° C., four days, anaerobic

OCC1OC2OCC3O[C@H](O[C@H]4C(O)C(CO)OC(OCC5O[C@H](O[C@@H](C1O)C2O)C(O)C(O)[C@@H]5O)C4O)C(O)C(O)[C@@H]3O (stereo partly drawn) [cyclotetrasaccharide, cyclo{→6)-α-D-glucopyranosyl-(1→3)-α-D-glucopyranosyl-(1→6)-α-D-glucopyranosyl-(1→3)-α-D-glucopyranosyl-(1→}]
Coloration degree (A480 nm) ([1]; heating time 0 min): 0.00 A480 nm | Coloration degree (A480 nm) ([1]; heating time 30 min): 0.00 A480 nm | Coloration degree (A480 nm) ([1]; heating time 60 min): 0.00 A480 nm | Coloration degree (A480 nm) ([1]; heating time 90 min): 0.00 A480 nm | Assimilability [2]: − (judged as negative (−) when the post culture had a pH of 6.0 or higher) | Coloration degree (A480 nm) ([3]; heating time 0 min): 0.00 A480 nm | Purity (%) after heating ([3]; heating time 0 min): 100% | Coloration degree (A480 nm) ([3]; heating time 30 min): 0.00 A480 nm | Purity (%) after heating ([3]; heating time 30 min): 100% | Coloration degree (A480 nm) ([3]; heating time 60 min): 0.00 A480 nm | Purity (%) after heating ([3]; heating time 60 min): 100% | Coloration degree (A480 nm) ([3]; heating time 90 min): 0.00 A480 nm | Purity (%) after heating ([3]; heating time 90 min): 100% | Decomposition percentage (%) by digestive enzyme [4]: 0.74% | digestibility level relative to that of maltitol [4]: ⅕ | Assimilability [5]: − (judged as negative (−) when the post culture had a pH of 6.0 or higher) | Coloration degree (A480 nm) ([6]; pH 2.0 (Acetate buffer)): 0.00 A480 nm | Purity (%) after heating ([6]; pH 2.0 (Acetate buffer)): 93% | Coloration degree (A480 nm) ([6]; pH 3.0 (Acetate buffer)): 0.00 A480 nm | Purity (%) after heating ([6]; pH 3.0 (Acetate buffer)): 100% | Coloration degree (A480 nm) ([6]; pH 4.0 (Acetate buffer)): 0.00 A480 nm | Purity (%) after heating ([6]; pH 4.0 (Acetate buffer)): 100% | Coloration degree (A480 nm) ([6]; pH 5.0 (Acetate buffer)): 0.00 A480 nm | Purity (%) after heating ([6]; pH 5.0 (Acetate buffer)): 100% | Coloration degree (A480 nm) ([6]; pH 6.0 (Tris-HCl buffer)): 0.00 A480 nm | Purity (%) after heating ([6]; pH 6.0 (Tris-HCl buffer)): 100% | Coloration degree (A480 nm) ([6]; pH 7.0 (Tris-HCl buffer)): 0.00 A480 nm | Purity (%) after heating ([6]; pH 7.0 (Tris-HCl buffer)): 100% | Coloration degree (A480 nm) ([6]; pH 8.0 (Tris-HCl buffer)): 0.00 A480 nm | Purity (%) after heating ([6]; pH 8.0 (Tris-HCl buffer)): 100% | Coloration degree (A480 nm) ([6]; pH 9.0 (Ammonium buffer)): 0.00 A480 nm | Purity (%) after heating ([6]; pH 9.0 (Ammonium buffer)): 100% | Coloration degree (A480 nm) ([6]; pH 10.0 (Ammonium buffer)): 0.00 A480 nm | Purity (%) after heating ([6]; pH 10.0 (Ammonium buffer)): 100% | Decomposition percentage (%) by digestive enzyme [7]: 0.0% | Assimilability [8]: − (judged as negative (−) when the post culture had a pH of 6.0 or higher) | LD50 [9]: at least 50 g/kg mouse body weight | Decomposition percentage (%) by digestive enzyme [10]: 0.0% | inclusion ability relative to that of the branched cyclodextrin by weight [11]: about 2 folds | Inclusion amount (mg/g lyophilized powder) ([11]; inclusion product Acetic acid): 67.74 mg/g lyophilized powder | Inclusion amount (mg/g lyophilized powder) ([11]; inclusion product Ethanol): 17.26 mg/g lyophilized powder | Inclusion amount (mg/g lyophilized powder) ([11]; inclusion product Methanol): 6.71 mg/g lyophilized powder | Assimilability [12]: − (judged as negative (−) when the post culture had a pH of 6.0 or higher)

Source: patent publication US7186701B2, “Dehydrating agent and method for dehydrating moist article using the agent and dehydrated article obtained by the method” (Kabushiki Kaisha Hayashibara Seibutsu Kagaku Kenkyujo, priority 2001, dated 2007)
